Measured values reported in article PMC11241255 (International Journal of Molecular Sciences, 2024).
Several values for one entry are separate records, joined by “and”; a condition that tells them apart may be missing. Identical values can stand only once. Like-named read-outs stand apart in the source and are kept apart here.

Tests used:
[1] = biological target: T1, Aβ1–42 (Homo sapiens, UniProt P05067); experiment: Anti-Aβ1–42 fibrilization, ThT assay; format: biochemical; conditions: for Aβ fibrilization inhibition (ThT): samples 500 μg/mL, 37 °C 24 h
T1 construct: Aβ1–42 for MDS (GenicBio Inc., Shanghai, China); purchased GenicBio Inc
T1 sequence (P05067 672-713): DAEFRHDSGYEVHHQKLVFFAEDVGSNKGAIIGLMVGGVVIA
Description: The anti-Aβ1–42 fibrilization activity of the extracts/bioactives was monitored using a ThT assay. The samples were incubated in the presence/absence of Aβ1–42 at 37 °C for 24 h. The samples were incubated with 100 μM ThT at 37 °C for 15 min. The fluorescence was monitored at Ex 450 nm/Ems 490 nm (Synergy-H1 BioTek, Agilent, Santa Clara, CA, USA). For the control, phenol red (50 μM) was used. The Aβ1–42 aggregation inhibition was calculated as follows:Percent Inhibition (%) = [(1 − Fi/Fc) × 100] where Fi and Fc are the fluorescence intensity with and without the inhibitors, respectively.

[2] = system: AChE; conditions: cited from earlier work
[3] = DPPH radical scavenging assay; conditions: positive control at 10 μg/mL
Description: DPPH radical scavenging capacity of the extracts and phytocompounds at 1 mg/mL was measured with slight modification. The absorbance was monitored at 515 nm (Multimode reader, Synergy-H1 BioTek, Agilent, Santa Clara, CA, USA) using ascorbic acid (0.1–10 μg/mL) as a standard. Radical scavenging activity (RSA) was calculated as:% RSA = (Ab − Ae/Ab) × 100 where Ab = absorbance of the blank and Ae = absorbance of the extract.

[4] = Ferric reducing antioxidant potential (FRAP) assay; conditions: 1 mg/mL
Description: FRAP assay was used to assess the […] of the extracts and phytocompounds with slight modification in a previously reported method. For the assay, the extract (1 mg/mL) was incubated with 200 μL of FRAP reagent, and the reduction of ferric tripyridyltriazine was monitored at 593 nm (Multimode reader, Synergy-H1 BioTek, Agilent, USA). Ascorbic acid (2 μg/mL) was used as a positive control. FRAP values of the extracts and phytocompounds were calculated from the standard curve of FeSO4 (15–250 μM) and expressed as μM Fe^2+/g.

[5] = biological target: T2, Acetylcholinesterase (Electrophorus electricus, Type VI-S) (Electrophorus electricus, UniProt O42275); experiment: biochemical; conditions: for IC50: read-out: AChE IC50 (converted); for Type of Inhibition of AChE: Lineweaver–Burk plot, 100 and 200 μg/mL; for Vmax of AChE in presence of inhibitor: no inhibitor 2.975
T2 construct: purchased Sigma-Aldrich
T2 sequence (O42275 24-633): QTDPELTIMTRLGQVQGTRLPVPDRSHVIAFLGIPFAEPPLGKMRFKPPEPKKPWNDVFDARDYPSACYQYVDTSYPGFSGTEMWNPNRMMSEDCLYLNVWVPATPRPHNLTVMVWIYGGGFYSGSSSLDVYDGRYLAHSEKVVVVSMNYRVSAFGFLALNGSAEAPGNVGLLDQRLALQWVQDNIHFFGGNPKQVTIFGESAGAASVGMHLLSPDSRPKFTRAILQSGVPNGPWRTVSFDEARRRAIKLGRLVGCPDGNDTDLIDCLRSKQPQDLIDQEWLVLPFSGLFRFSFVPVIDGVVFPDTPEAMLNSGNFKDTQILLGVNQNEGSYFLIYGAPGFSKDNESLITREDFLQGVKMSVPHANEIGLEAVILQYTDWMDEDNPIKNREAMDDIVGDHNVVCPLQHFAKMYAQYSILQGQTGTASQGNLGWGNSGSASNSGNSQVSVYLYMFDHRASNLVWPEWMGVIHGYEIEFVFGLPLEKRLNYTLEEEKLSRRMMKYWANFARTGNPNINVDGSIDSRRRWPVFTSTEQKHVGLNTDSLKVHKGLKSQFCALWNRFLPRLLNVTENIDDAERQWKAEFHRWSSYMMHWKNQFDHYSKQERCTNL
Description: The AChE activity was examined by slight modifications [23] in Ellman’s method [76]. The extracts and phytocompounds were incubated for 15 min with AChE and 10 mM ATCC at 37 °C. The reaction was stopped by DTNB (15 mM), and the absorbance was measured at 412 nm (Multi-mode plate reader, Synergy-H1 BioTek, Agilent, USA). […] The percent inhibition was calculated as:Percent Inhibition (I%) = [(Ao − Ac) − (Bi − Bc)]/(Ao − Ac) × 100 where Ao is the absorbance without inhibitor; Ac is the negative control without inhibitor; Bi is the absorbance with inhibitor; and Bc is the negative control with inhibitor. The IC50 values were calculated using GraphPad Prism 10. Lineweaver–Burk plot was used to prepare the inhibition curves (with and without extract/phytocompound) using GraphPad Prism 10. The kinetic parameters were calculated from a non-linear fit (Michaelis–Menten equation) in GraphPad Prism 10.
Statistical analysis was established by a one-way ANOVA followed by Dunnett’s post hoc test. Data are registered as the mean ± SEM of three sets of experiments. […] The IC50 values were determined using non-linear regression. The Vmax and Km were calculated from a Michaelis–Menten plot drawn using a non-linear plot (GraphPad Prism 10). Lineweaver–Burk plots were drawn using linear regression analysis (GraphPad Prism 10). The Ki values were calculated from the formula IC50 = Ki (1 + [S]/Km).

[6] = biological target: T1, Aβ1–42; experiment: Anti-Aβ1–42 oligomerization, multimeric detection system (MDS); format: biochemical; conditions: for Aβ oligomerization reduction (relative amount of Aβ oligomers): vs negative control (Buffer + Aβ)
Description: The anti-Aβ1–42 oligomerization and fibrilization activity of the extracts/bioactives were measured by Multiple Detection System (MDS) and ThT assay, respectively. Briefly, the extracts and phytocompounds were incubated with Aβ1–42 at RT for different time points (0 h, 2 h, and 4 h). The samples were incubated on an anti-β-amyloid pre-coated plate for 1 h at RT. An HRP-conjugated W0–2 monoclonal antibody was added, and the plate was kept at RT for 30 min. Later, TMB was added, and the plate was incubated for 15 min at RT. The absorbance was read at 450 nm using a microplate reader (Victor3, PerkinElmer, Shelton, CT, USA)

[7] = system: SH-SY5Y neuroblastoma cell line; experiment: Cell viability / cytotoxicity assay (WST-8); format: cell-based, Human; conditions: 24 h treatment; 1, 10, 30 µg/mL
Description: (§1) Human neuroblastoma SH-SY5Y cells (ATCC CRL-2266, Manassas, VA, USA) were maintained in Dulbecco’s modified Eagle’s medium (DMEM, Gibco) supplemented with 10% fetal bovine serum (FBS), 1% kanamycin, and 1% penicillin (Thermo Fisher Scientific, Waltham, MA, USA) at 37 °C with 5% CO2, and a 95% humidified atmosphere in the incubator. The experiments were executed at 80–90% cell confluency.
The cells were seeded (1 × 10^4 cells/well) in 96-well sterile plates and pre-treated with various extract concentrations (1, 10, 30 µg/mL) for 24 h. The extracts and phytocompounds were removed and incubated for 2 h with 10% WST-8 reagent (Roche, Grenzach-Wyhlen, Germany) as described previously. The absorbance was determined at 450 nm in a multi-plate reader (Synergy-H1 BioTek, Agilent, USA). The percent cytotoxicity was calculated as:Cytotoxicity % = (Ac − At)/(Ac) × 100 where Ac = absorbance of the control cells, At = absorbance of the treated cells.
The plot of percent cytotoxicity versus sample concentration was used to calculate the extract concentration that killed 50% of the cells (IC50).

[8] = system: H2O2-induced neuroblastoma SH-SY5Y cells; experiment: Neuroprotection assay against H2O2-induced oxidative stress (WST-8); format: cell-based, Human
Description: as §1
The neuroprotective effect of extracts and phytocompounds on H2O2-induced oxidative stress in SH-SY5Y by a previously described method. The cells (1 × 10^4 cells/well) were seeded in a 96-well sterile plate. After stabilization, the cells were pre-treated with the extracts and phytocompounds for 24 h. The extracts and phytocompounds were removed and treated with H2O2 (100 μM) for 6 h. A solvent control, H2O2 alone, and extract alone treatments were also included. After incubation, the % cell viability was measured using WST-8 reagent in triplicate experiments.

[9] = system: H2O2-induced ROS production in SH-SY5Y cells; experiment: Intracellular ROS measurement (H2DCFDA); format: cell-based, Human; conditions: 12 h pre-treatment, H2O2 100 µM 2 h, H2O2 alone 156.96 ± 5.07%
Description: as §1
The cells (1 × 10^4 cells/well) were seeded in a 96-well sterile plate, after which they were pre-treated with the extract for 12 h. […] The fluorescence intensity (Ex 495 nm, Ems 520 nm) was measured by a microplate reader (Synergy-H1 BioTek, Agilent, USA). The ROS was calculated as a percentage of the untreated control cells (100%) in triplicate measurements.

[10] = system: SH-SY5Y cells; experiment: Mitochondrial membrane potential (ΔΨm) assay (TMRE); format: cell-based, Human; conditions: 12 h pre-treatment, 200 μM H2O2 2 h
Description: as §1
The mitochondrial membrane potential was measured using the tetramethylrhodamine, methyl ester (TMRE) staining method. The cells (1 × 10^4 cells/well) were seeded in a 96-well sterile plate; after which, they were pre-treated with the extract for 12 h. The extracts and phytocompounds were removed, followed by a 2 h treatment with H2O2 (200 μM). A 1 μM amount of TMRE was added to the cells and incubated for 1 h at 37 °C. The fluorescence was assessed (Ex 549 nm, Ems 575 nm) using a microplate reader (Synergy-H1 BioTek, Agilent, USA). The ΔΨm was calculated as a percentage of the untreated control cells (100%) in triplicate measurements.

[11] = system: SH-SY5Y cell lysate; experiment: Glutathione (GSH, GSSG) in cell lysate; format: cell-based, Human; conditions: 10 μg/mL; 24 h pre-treatment, 6 h H2O2 100 μM
Description: as §1
(§2) The cells (5 × 10^4 cells/well) were seeded in a 6-well sterile plate and incubated for 18–24 h. After stabilization, cells were pre-treated with the extracts and phytocompounds for 24 h before 6 h incubation with H2O2 (100 μM). The culture media was removed, and the cells were washed with cold PBS (1X). The cells were placed on ice and incubated with pre-chilled RIPA buffer for 10 min. Transfer the lysate in microfuge tubes and centrifuge (Labogene 1730R, BMS, Paju-si, Republic of Korea) for 10 min at 20,000× g, 4 °C. The supernatant was collected and stored at −80 °C.
The concentrations of GSH (reduced) and GSSG (oxidized) in the lysate were measured fluorometrically using a previously described and the fluorescence was recorded at 350/420 (Ex/Ems) in a microplate reader (Synergy-H1 BioTek, Agilent, Santa Clara, CA, USA).

[12] = system: SH-SY5Y cells lysate; experiment: Malondialdehyde (MDA) in cell lysate (TBA:TCA); format: cell-based, Human; conditions: 24 h pre-treatment, 6 h H2O2 100 μM
Description: as §1, §2
MDA levels were measured using TBA: TCA reagent as described previously. In the reaction, MDA reacts with two molecules of thiobarbituric acid (TBA) to give a pink pigment that absorbs at 532 nm. The standard curve of MDA (1–100 μM) was used to calculate lipid peroxidation in the lysate.

[13] = cited from earlier work
[14] = ABTS radical scavenging assay; conditions: positive control at 10 μg/mL
[15] = mean of three experiments ± SEM

Compound `O=S1(=O)OC(c2ccc(O)cc2)(c2ccc(O)cc2)c2ccccc21` [phenol red, reference compound] has an inhibition at 50 µM ([1]; positive control 50 μM, read-out: Aβ fibrilization inhibition (ThT)) of 60.3 ± 4.29%.
For `COc1ccc2c3c1O[C@H]1C[C@@H](O)C=C[C@@]31CCN(C)C2` [galantamine, reference compound], the “AChE IC50” value ([2]; previously reported value, no reference given) is listed as 4.31 µg/mL.
For `O=C1O[C@H]([C@@H](O)CO)C(O)=C1O` [Ascorbic acid, ascorbic acid], the “DPPH percent radical scavenging activity” value [3] was 85.43 ± 1.02%.
With `C=C(C)[C@H]1CC[C@H](C)C(=O)C1` [DHC, cyclohexanone,2-methyl-5-(1-methylethenyl)-] the FRAP value [4] was 45.22 ± 0.72 µM Fe^2+/g, the IC50 [5, 15] was > 7870 µM and 7870 µM and the IC50 ([5]; stated as bound) was over 6570 µM. The “Aβ oligomerization reduction (relative amount of Aβ oligomers)” value ([6]; 2 h incubation) was “non-significant”, the “percent Aβ oligomerization inhibition” value ([6]; MDS, Figure 3B, mean ± SEM n = 3) was 26.62 ± 8.62% and the “Aβ fibrilization inhibition (ThT)” value [1] was 26.6% and 33.44 ± 3.43%. For the same compound, the “Cytotoxicity (cell viability) in SH-SY5Y” value [7] was “No significant difference”, the “cell viability change vs H2O2 control” value ([8]; all concentrations (0.1–30 µg/mL)) was “non-significantly increased” and the “ROS level (% of untreated cells)” value ([9]; 10 µg/mL) was 107.37 ± 8.26%. For the same compound, the “ROS level (% of untreated cells)” value ([9]; 30 µg/mL) was 96.73 ± 9.11%, the “MMP (% ΔΨm vs untreated cells)” value ([10]; 0.1 µg/mL) was 74.94 ± 1.20% and the “MMP (% ΔΨm vs untreated cells)” value ([10]; 1 µg/mL) was 79.26 ± 0.56%. The “MMP (% ΔΨm vs untreated cells)” value ([10]; 10 µg/mL) was 85.21 ± 0.19%, the “MMP (% ΔΨm vs untreated cells)” value ([10]; 30 µg/mL) was 86.91 ± 5.47% and the GSSG levels [11] was “substantial reduction”. The MDA level ([12]; 0.1 µg/mL) was 1.79 µM, the MDA level ([12]; 1 µg/mL) was 1.60 µM and the MDA level ([12]; 10 μg/mL) was 1.45 µM. The AChE inhibition ([2]; at 1 mg/mL) was 31.1%.
For `C=CCc1cc(OC)c2c(c1OC)OCO2` [apiole], the FRAP value [4] was 42.41 ± 3.54 µM Fe^2+/g, the Ki ([5]; Ki) was 1720 µM and the Ki ([5]; Ki (inhibitor constant), AChE) was 1720 µM and 1710 µM. The “Type of Inhibition of AChE” value [5] was “competitive inhibition”, the “Type of Inhibition of AChE” value ([5]; listed as Apiole) was “Competitive” and the “Vmax of AChE in presence of inhibitor” value ([5]; inhibitor 100 μg/mL) was 3.551 µmol/min/mg. The “Vmax of AChE in presence of inhibitor” value ([5]; inhibitor 200 μg/mL) was 3.712 µmol/min/mg, the IC50 [5, 15] was 1750 µM and the IC50 ([5]; molar equivalent of the μg/mL value) was 1740 µM. The “Aβ oligomerization reduction (relative amount of Aβ oligomers)” value ([6]; 2 h incubation) was “statistically significant”, the “Aβ oligomerization reduction (relative amount of Aβ oligomers)” value ([6]; 4 h incubation) was “statistically significant” and the “Aβ fibrilization inhibition (ThT)” value [1] was 41.85 ± 1.73%. The “Cytotoxicity (cell viability) in SH-SY5Y” value [7] was “No significant difference”, the “% cell viability, H2O2-induced SH-SY5Y” value ([8]; 1–30 µg/mL, 12 h pre-treatment, 1 h H2O2 100 µM) was ~ 75% and the “ROS level (% of untreated cells)” value ([9]; 10 µg/mL) was 113.63 ± 6.25%. The “ROS level (% of untreated cells)” value ([9]; 30 µg/mL) was 102.92 ± 9.11%, the “MMP (% ΔΨm vs untreated cells)” value ([10]; 0.1 µg/mL) was 71.53 ± 0.37% and the “MMP (% ΔΨm vs untreated cells)” value ([10]; 1–30 µg/mL) was 75 to 77%. The MDA level ([12]; 0.1 µg/mL) was 1.94 µM, the MDA level ([12]; 1 and 10 µg/mL) was ~ 1.38 µM and the BBB permeability [13] was “lacks significant BBB permeability”.
With `O=c1c(O)c(-c2ccc(O)c(O)c2)oc2cc(O)cc(O)c12` [quercetin] the “ABTS radical scavenging activity” value [14] was 97.55 ± 0.05%.
